Measurements taken from publication PMC11364775, “Ion occupancy of the selectivity filter controls opening of a cytoplasmic gate in the K2P channel TALK-2” (Nature Communications, 2024).

Columns and labels:
[1] = molecular target: T1, WT TREK-2 channels (human K2P10.1) (Homo sapiens, UniProt P57789); test: Tail current deactivation kinetics with pore blocker (inside-out patch); format: cell-based
T1 construct: expressed in transfected cells; host or cells: Xenopus laevis oocytes (cRNA injection), excised inside-out patches
T1 sequence (P57789 1-538): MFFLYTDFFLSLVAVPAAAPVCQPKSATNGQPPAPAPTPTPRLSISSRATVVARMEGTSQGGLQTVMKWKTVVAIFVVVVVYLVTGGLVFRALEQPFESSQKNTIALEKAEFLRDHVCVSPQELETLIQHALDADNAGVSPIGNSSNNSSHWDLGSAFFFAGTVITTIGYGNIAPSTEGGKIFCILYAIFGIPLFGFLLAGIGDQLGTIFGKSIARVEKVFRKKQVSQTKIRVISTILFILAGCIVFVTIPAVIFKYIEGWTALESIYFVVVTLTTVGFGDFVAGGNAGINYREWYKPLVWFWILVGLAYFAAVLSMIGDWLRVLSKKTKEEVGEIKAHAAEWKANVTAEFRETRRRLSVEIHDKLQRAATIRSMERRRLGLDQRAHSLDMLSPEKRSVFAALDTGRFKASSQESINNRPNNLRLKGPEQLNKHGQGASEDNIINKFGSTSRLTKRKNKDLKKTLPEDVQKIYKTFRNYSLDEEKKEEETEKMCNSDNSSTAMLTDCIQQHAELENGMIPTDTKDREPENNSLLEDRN

WT TREK-2 channels = molecular target: T2, WT TREK-2 channels (Homo sapiens, UniProt P57789); test: Conductance-voltage (G-V) curves from tail currents, V1/2 (intracellular Rb+); format: cell-based; conditions: for Normalized current: TREK-2 WT + 0.1 mM TPenA
T2 construct: expressed in transfected cells; host or cells: Xenopus laevis oocytes (cRNA injection), excised inside-out patches
T2 sequence (P57789 1-538): T1 sequence (P57789 1-538)
Description: The voltage-dependent activation mechanism of the SF gate in K2P channels allows to estimate the electrical work (ΔG = zFΔV1/2) required for pore opening by fitting the G–V curve to a Boltzmann equation. […] The open state represents the situation of both gates being simultaneously open but voltage can only exert force on the SF gate that functions as voltage sensor. […] We further tested whether mutations that open the lower gate (L262A and L264A) would affect the extracellular pH sensitivity. […] We further explored this concept of allosteric coupling using the mutations identified in the functional alanine screen of TM2 and TM4. […]
Conductance-voltage (G–V) relationships were determined from tail currents recorded at a holding potential (VH) of −80 mV after 300 ms depolarizing steps as indicated in the respective figure legend. Data were analyzed with a single Boltzmann fit following Eq. 6:6 GV=Imax/1+e^V−V1/2/slope+Ibase where V1/2 represents the voltage of half-maximal activation, s is the slope factor and Imax and Ibase represent the upper and lower asymptotes. Under appropriate experimental conditions, you can use slope to calculate the valence (charge) of the ion moving across the channel. Slope equals R * T/ z * F where R is the universal gas constant, T is temperature in K, F is the Faraday constant, and z is the valence.

Structure (SMILES): CCCCC[N+](CCCCC)(CCCCC)CCCCC [TPenA, Tetra-pentyl-ammonium chloride]
- effect of TPenA inhibition on tail current kinetics ([1]; TREK-2): no effect
- deactivation time constant τ of tail currents ([1]; intracellular Rb+ with 50 µM TPenA): 11.2 ± 1.4 ms
- effect of TPenA on the G-V curve (WT TREK-2 channels; TREK-2, intracellular Rb+): not affected
- Normalized current (WT TREK-2 channels; Voltage 0.000): 0.142
- Normalized current (WT TREK-2 channels; Voltage 0.005): 0.177
- Normalized current (WT TREK-2 channels; Voltage 0.010): 0.238
- Normalized current (WT TREK-2 channels; Voltage 0.015): 0.307
- Normalized current (WT TREK-2 channels; Voltage 0.020): 0.404
- Normalized current (WT TREK-2 channels; Voltage 0.025): 0.485
- Normalized current (WT TREK-2 channels; Voltage 0.030): 0.577
- Normalized current (WT TREK-2 channels; Voltage 0.035): 0.667
- Normalized current (WT TREK-2 channels; Voltage 0.040): 0.719
- Normalized current (WT TREK-2 channels; Voltage 0.045): 0.784
- Normalized current (WT TREK-2 channels; Voltage 0.050): 0.838
- Normalized current (WT TREK-2 channels; Voltage 0.055): 0.851
- Normalized current (WT TREK-2 channels; Voltage 0.060): 0.883
- Normalized current (WT TREK-2 channels; Voltage 0.065): 0.906
- Normalized current (WT TREK-2 channels; Voltage 0.070): 0.921
- Normalized current (WT TREK-2 channels; Voltage 0.075): 0.924
- Normalized current (WT TREK-2 channels; Voltage 0.080): 0.944
- Normalized current (WT TREK-2 channels; Voltage 0.085): 0.936
- Normalized current (WT TREK-2 channels; Voltage 0.090): 0.949
- Normalized current (WT TREK-2 channels; Voltage 0.095): 0.963
- Normalized current (WT TREK-2 channels; Voltage 0.100): 0.966
- Normalized current (WT TREK-2 channels; Voltage 0.105): 0.964
- Normalized current (WT TREK-2 channels; Voltage 0.110): 0.962
- Normalized current (WT TREK-2 channels; Voltage 0.115): 0.961
- Normalized current (WT TREK-2 channels; Voltage 0.120): 0.949
- Normalized current (WT TREK-2 channels; Voltage 0.125): 0.915
- Normalized current (WT TREK-2 channels; Voltage 0.130): 0.965
- Normalized current (WT TREK-2 channels; Voltage 0.135): 0.962
- Normalized current (WT TREK-2 channels; Voltage 0.140): 0.941
- Normalized current (WT TREK-2 channels; Voltage 0.145): 0.970
- Normalized current (WT TREK-2 channels; Voltage 0.150): 0.939
- Normalized current (WT TREK-2 channels; Voltage -0.005): 0.115
- Normalized current (WT TREK-2 channels; Voltage -0.010): 0.097
- Normalized current (WT TREK-2 channels; Voltage -0.015): 0.086
- Normalized current (WT TREK-2 channels; Voltage -0.020): 0.073
- Normalized current (WT TREK-2 channels; Voltage -0.025): 0.072
- Normalized current (WT TREK-2 channels; Voltage -0.030): 0.066
- Normalized current (WT TREK-2 channels; Voltage -0.035): 0.062
- Normalized current (WT TREK-2 channels; Voltage -0.040): 0.062
- Normalized current (WT TREK-2 channels; Voltage -0.045): 0.059
- Normalized current (WT TREK-2 channels; Voltage -0.050): 0.058
- Normalized current (WT TREK-2 channels; Voltage -0.055): 0.055
- Normalized current (WT TREK-2 channels; Voltage -0.060): 0.055
- Normalized current (WT TREK-2 channels; Voltage -0.065): 0.050
- Normalized current (WT TREK-2 channels; Voltage -0.070): 0.049
- Normalized current (WT TREK-2 channels; Voltage -0.075): 0.050
- Normalized current (WT TREK-2 channels; Voltage -0.080): 0.048
- Normalized current (WT TREK-2 channels; Voltage -0.085): 0.046
